B1: recombinant CYP2C9 (Homo sapiens) (protein)
chain: MDSLVVLVLCLSCLLLLSLWRQSSGRGKLPPGPTPLPVIGNILQIGIKDISKSLTNLSKVYGPVFTLYFGLKPIVVLHGYEAVKEALIDLGEEFSGRGIFPLAERANRGFGIVFSNGKKWKEIRRFSLMTLRNFGMGKRSIEDRVQEEARCLVEELRKTKASPCDPTFILGCAPCNVICSIIFHKRFDYKDQQFLNLMEKLNENIKILSSPWIQICNNFSPIIDYFPGTHNKLLKNVAFMKSYILEKVKEHQESMDMNNPQDFIDCFLMKMEKEKHNQPSEFTIESLENTAVDLFGAGTETTSTTLRYALLLLLKHPEVTAKVQEEIERVIGRNRSPCMQDRSHMPYTDAVVHEVQRYIDLLPTSLPHAVTCDIKFRNYLIPKGTTILISLTSVLHDNKEFPNPEMFDPHHFLDEGGNFKKSKYFMPFSAGKRICVGEALAGMELFLFLTSILQNFNLKSLVDPKNLDTTPVVNGFASVPPFYQLCFIPV
notes: purchased Cypex Ltd. (U.K.)

Experiments:
CYP3A4 = test system: CYP3A4; set-up: method as in Hao et al.(2008); conditions: baculosomes, ref Hao et al.(2008); cited from earlier work
[1] = substrate: CC(C)=CCC[C@](C)(OC1O[C@H](CO)[C@@H](O)[C@H](O)[C@H]1O)[C@H]1CC[C@]2(C)[C@@H]1[C@H](O)C[C@@H]1[C@@]3(C)CC[C@H](O)C(C)(C)[C@@H]3CC[C@]12C; assay: Kinetic analysis of CK metabolism by recombinant CYP2C9; format: in vitro ADME, human; conditions: other: recombinant CYP2C9 10 pmol, CK 10–100 μM; pH 7.4; 37.0 °C
Procedure: The method was conducted according to our previous study with some modifications. The CYP isoform-specific probe reactions used were phenacetin O-deethylation (for CYP1A2), coumarin 7-hydroxylation (for CYP2A6), tolbutamide 4-hydroxylation (for CYP2C9), metoprolol α-hydroxylation (for CYP2D6), chlorzoxazone 6-hydroxylation (for CYP2E1),S-Mephenytoin 4-hydroxylation (for CYP2C19), and midazolam 1-hydroxylation (for CYP3A4). The kinetic study of CK was conducted with HLMs. A 0.2 mL incubation mixture that consisted of CK (as a substrate), the HLMs (0.5 mg/mL) or CYP isoforms (10 pmol), and 0.1 M sodium phosphate buffer (pH 7.4) was pre-warmed for 5 min at 37°C. The reaction was initiated by the addition of 1 mg/mL triphosphopyridine nucleotide (NADPH). […]
The kinetic parameters for the metabolism of CK were determined by incubating increasing concentrations of CK (10–100 μM) at 37°C with the HLMs and NADPH under the incubation conditions as described in detail previously. The equation of CK reaction velocity (V) in the HLMs or CYP isoforms is expressed as V = (C0–Ct)/T/Cp, where C0and Ct are the initial and final concentrations of CK in the incubation solution, respectively, T is the incubation time (min), and Cp is the protein concentration (mg/mL or nmol). All values were expressed as the mean±standard deviation (SD). […]

Row | Molecule | CYP3A4 inhibition (CYP3A4) | Km [1] [µM]
1 | CC(C)=CCC[C@](C)(O)[C@H]1CC[C@]2(C)[C@@H]1[C@H](O)C[C@@H]1[C@@]3(C)CC[C@H](O[C@@H]4O[C@H](CO)[C@@H](O)[C@H](O)[C@H]4O)C(C)(C)[C@@H]3CC[C@]12C [Rh2, reference compound] | moderate | 
2 | B1 |  | 34.63 ± 10.48

From article PMC4742234, “Screening of Drug Metabolizing Enzymes for the Ginsenoside Compound K In Vitro: An Efficient Anti-Cancer Substance Originating from Panax Ginseng” (PLoS ONE, 2016)
